In patent US20050191308A1 (priority 1999, published 2005):

Test system: M. tuberculosis (Erdman)
Conditions: in vivo

SMILES: CCCCCCCCCCCCCCCCCC[N+](C)(C)CCCCCCCCCCCCCCCCCC.[Br-] [DDA]
- Log10 resistance, Lung, Experiment I: <0.05 log10
- Log10 resistance, Spleen, Experiment I: <0.05 log10
